The values that follow come from publication PMC11389776, “Positive allosteric modulation of a GPCR ternary complex” (Science Advances, 2024).

Assay [1] has as its target T1, M2 mAChR (Homo sapiens, UniProt P08172, DEL226-389).
T1 construct: made in house; host or cells: Sf9 insect cells (receptor, baculovirus); Trichoplusia ni Hi5 cells (G protein); E. coli BL21(DE3) (cMSP1D1 scaffold)
T1 sequence (P08172 with tags, fused parts or gaps DEL226-389): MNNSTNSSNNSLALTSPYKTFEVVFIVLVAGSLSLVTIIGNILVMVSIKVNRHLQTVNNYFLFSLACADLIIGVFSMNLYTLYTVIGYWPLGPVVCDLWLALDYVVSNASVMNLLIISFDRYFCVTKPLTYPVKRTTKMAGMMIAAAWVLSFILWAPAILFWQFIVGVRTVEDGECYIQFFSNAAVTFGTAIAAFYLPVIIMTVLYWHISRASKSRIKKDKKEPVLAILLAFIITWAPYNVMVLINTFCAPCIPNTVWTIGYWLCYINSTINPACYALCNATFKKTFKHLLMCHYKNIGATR
In words: [3H]-NMS interaction binding with LY211 and/or G protein at M2 mAChR nanodiscs (full interaction and titration). The procedure:
(§1) The affinity of [^3H]-NMS for M2 mAChR in nanodiscs, as well as the concentration of receptor in nanodiscs, was determined through saturation binding with [^3H]-NMS. M2 nanodiscs were incubated with a range of concentrations of [^3H] […] Membrane equilibrium binding experiments were performed with 15 μg of membrane expressing the WT hM2 mAChR in a 300-μl reaction volume of binding buffer with or without 100 μM Gpp[NH]pp in deep 96-well plates for 6 hours at RT. […] For all radioligand binding experiments, nonspecific binding was defined by 10 μM Atr and the assay was terminated through rapid filtration through Whatman GF/B filter plates using a 96-well harvester (PerkinElmer). Filter plates were dried overnight, and radioactivity was determined by adding 40 μl of MicroScint-O scintillation fluid and counting in a MicroBeta^2 Plate Counter (PerkinElmer Life Sciences).
(§2) All data were analyzed using GraphPad Prism 9 (GraphPad Software, San Diego, CA). […] For competition binding experiments between [^3H]-NMS and a range of concentrations of unlabeled orthosteric agonist at M2 mAChR nanodiscs in the presence of G protein and for competition binding at M2 mAChR membranes, data were fit to a two-site competition binding model or a one-site competition binding model. […] Monoexponential decay and one-phase association equations were fit to the radioligand dissociation and association data at M2 mAChR nanodiscs.

Assay [2] concerns the target T2, M2 mAChR (Homo sapiens, UniProt P08172).
T2 construct: expressed in transfected cells
T2 sequence (P08172 1-466): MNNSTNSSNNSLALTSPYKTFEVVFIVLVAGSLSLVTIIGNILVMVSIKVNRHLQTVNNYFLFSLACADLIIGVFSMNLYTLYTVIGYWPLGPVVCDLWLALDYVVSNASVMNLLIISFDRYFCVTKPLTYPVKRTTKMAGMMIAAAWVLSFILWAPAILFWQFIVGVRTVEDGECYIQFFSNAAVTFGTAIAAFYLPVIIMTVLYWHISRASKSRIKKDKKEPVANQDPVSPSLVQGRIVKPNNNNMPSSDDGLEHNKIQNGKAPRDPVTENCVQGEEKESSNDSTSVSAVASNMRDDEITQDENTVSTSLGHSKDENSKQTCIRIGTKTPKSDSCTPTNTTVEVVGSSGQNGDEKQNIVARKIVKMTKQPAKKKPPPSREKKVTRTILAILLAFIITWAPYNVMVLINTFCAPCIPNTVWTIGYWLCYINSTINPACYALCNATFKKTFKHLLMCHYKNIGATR
Put plainly: Gi1 (TRUPATH) protein activation assay in M2 mAChR FlpIn CHO cells. As to conditions: for Log τ: operational efficacy, operational model of agonism, LY211 value is an estimate (saturation not reached). It counts as cell-based. The procedure:
Upon 60 to 80% confluence, WT hM2 mAChR expressing FlpIn CHO cells were transfected transiently using polyethylenimine (Sigma-Aldrich) with 10 ng per well of each the G protein TRUPATH biosensors pcDNA5/FRT/TO-Gαi1-RLuc8/pcDNA3.1-β3/pcDNA3.1-Gγ9-GFP2 giving a ratio of 1:1:1 ratio with 30 ng in total. Cells were plated at 30,000 cells per well into 96-well Greiner CELLSTAR white-walled plates (Sigma-Aldrich). Forty-eight hours later, cells were washed with 200 μl of PBS and replaced with 1x Hanks’ balanced salt solution supplemented with 10 mM Hepes. […] The ratio was vehicle corrected using the initial four baseline measurements and then baseline corrected again using the vehicle-treated wells. Concentration-response curves were constructed from the area under the curve (AUC) of the double baseline-corrected kinetic traces and normalized to the highest AUC value in each dataset.
as §2

Assay [3] has as its target T2, M2 mAChR. Put plainly: Kinetic Gαi1 (TRUPATH) protein activation assay in M2 mAChR CHO cells. The assay is classed as cell-based. To be noted: for Steady state: final effect level, normalized to ACh. The procedure: Upon 60 to 80% confluence, WT hM2 mAChR expressing FlpIn CHO cells were transfected transiently using polyethylenimine (Sigma-Aldrich) with 10 ng per well of each the G protein TRUPATH biosensors pcDNA5/FRT/TO-Gαi1-RLuc8/pcDNA3.1-β3/pcDNA3.1-Gγ9-GFP2 giving a ratio of 1:1:1 ratio with 30 ng in total. Cells were plated at 30,000 cells per well into 96-well Greiner CELLSTAR white-walled plates (Sigma-Aldrich). Forty-eight hours later, cells were washed with 200 μl of PBS and replaced with 1x Hanks’ balanced salt solution supplemented with 10 mM Hepes. […] Cells were further incubated for 10 min at 25°C before BRET measurements were performed on a PHERAstar FSX plate reader (BMG Labtech) using 410/80-nm and 515/30-nm filters. […] The BRET signal was calculated as the ratio of 515/30-nm emission over 410/80-nm emission. The ratio was vehicle corrected using the initial four baseline measurements and then baseline corrected again using the vehicle-treated wells. Concentration-response curves were constructed from the area under the curve (AUC) of the double baseline-corrected kinetic traces and normalized to the highest AUC value in each dataset.
(§3) All data were analyzed using GraphPad Prism 9 (GraphPad Software, San Diego, CA). Concentration-response curves were fit with a three-parameter logistic equation to quantify potency (pEC50) and an operational model of agonism to derive an efficacy parameter (log τ) ([69]). […] For competition binding experiments between [^3H]-NMS and a range of concentrations of unlabeled orthosteric agonist at M2 mAChR nanodiscs in the presence of G protein and for competition binding at M2 mAChR membranes, data were fit to a two-site competition binding model or a one-site competition binding model. […] Monoexponential decay and one-phase association equations were fit to the radioligand dissociation and association data at M2 mAChR nanodiscs. Kinetic TRUPATH data were analyzed using a “baseline then rise to steady state with drift” equation ([44]).

For assay [4], the target named is T1, M2 mAChR. In words: [3H]-NMS competition binding at M2 mAChR nanodiscs with or without Gi1 protein. The procedure:
as §1, §2

The target in assay [5] is T3, M2ΔICL3 mAChR (Homo sapiens, UniProt P08172, DEL226-389).
T3 construct: expressed in transfected cells
T3 sequence (P08172 with tags, fused parts or gaps DEL226-389): T1 sequence (P08172 with tags, fused parts or gaps DEL226-389)
Put plainly: ERK1/2 phosphorylation assay in M2ΔICL3 mAChR FlpIn CHO cells. It counts as cell-based. As to conditions: pERK1/2, M2ΔICL3 mAChR FlpIn CHO cells, normalized to FBS; three-parameter logistic. The procedure:
as §3

The target in assay [6] is T1, M2 mAChR. Put plainly: [3H]-NMS association and dissociation assays at M2 mAChR nanodiscs. It counts as binding. The procedure: The affinity of [^3H]-NMS for M2 mAChR in nanodiscs, as well as the concentration of receptor in nanodiscs, was determined through saturation binding with [^3H]-NMS. M2 nanodiscs were incubated with a range of concentrations of [^3H] NMS in a final volume of 200 μl of binding buffer [20 mM Hepes (pH 7.5), 100 mM NaCl, 10 mM MgCl2, and 0.5% bovine serum albumin] for 6 hours at RT. […] Membrane equilibrium binding experiments were performed with 15 μg of membrane expressing the WT hM2 mAChR in a 300-μl reaction volume of binding buffer with or without 100 μM Gpp[NH]pp in deep 96-well plates for 6 hours at RT. […] For all radioligand binding experiments, nonspecific binding was defined by 10 μM Atr and the assay was terminated through rapid filtration through Whatman GF/B filter plates using a 96-well harvester (PerkinElmer). Filter plates were dried overnight, and radioactivity was determined by adding 40 μl of MicroScint-O scintillation fluid and counting in a MicroBeta^2 Plate Counter (PerkinElmer Life Sciences).
as §3

Setting [7] is: saturating amount of drug alone.
Setting [8] is: saturating amount of drug alone, baseline then rise to steady state with drift model.
The mark [9] stands for this setting: saturating orthosteric agonist + LY211.

Structures are written as SMILES.

Take `Cc1c(Cl)c(OCC(=O)N2CCN(C)CC2)nc2sc(C(=O)NC3CC3)c(N)c12` [LY211, LY2119620]: the “(LY211) - Log αAgonist” value in assay [1] (Full interaction ACh–LY211, + 1:2000 G protein heterotrimer, not different from zero (F test), constrained to zero) worked out at 0. Also, the “(LY211) - Log α[3H]-NMS” value in assay [1] (Full interaction with ACh, + 1:2000 G protein heterotrimer, ATCM) is listed as −0.37 ± 0.04 (4). Further, the “Log α[3H]-NMS” value in assay [1] (Titration against KD concentration of [3H]-NMS, ATCM) was −0.19 ± 0.08 (3); in assay [1] (Titration against [3H]-NMS, + 1:2000 G protein heterotrimer, ATCM), −0.81 ± 0.20 (3). For the same compound, the “increase in the affinity of LY211 in the presence of G protein” value in assay [1] (titration against [3H]-NMS, with vs without saturating Gi1) is recorded as “sixfold”. Besides, the “Log τ” value in assay [2] is recorded as 0.75 ± 0.12 (4). The Steady state in assay [3] (setting [7]) is 69.1 ± 4.22 (3). Besides, the Initial rate in assay [3] (setting [8]) is recorded as 198 ± 51.0 (3) BRET units min^−1.

On to `C[N+](C)(C)CC#CCOC1=NOCC1` [Ipx, iperoxo], for which the “increase in affinity between pKi(Low) and pKi(High)” value in assay [4] (M2 mAChR nanodiscs, shift promoted by Gi1) is 112 fold. For the same compound, the “increase in agonist affinity in the presence of 10 μM LY211” value in assay [4] (M2 mAChR nanodiscs, without G protein) is recorded as 112 fold. In addition, the “(G protein) - Log α” value in assay [4] (Nanodisc, cooperativity between agonist and G protein (Gi1), ATCM) is given as 2.33 ± 0.18 (3). In addition, the “pKi(Low)” value in assay [4] (Nanodisc, two-site competition binding model, 6 hours at RT) is 7.72 ± 0.06 (11). In addition, in assay [4] (fraction of receptors in high-affinity state, two-site model, R:G 1:0), the “FracHi - M2 mAChR nanodiscs - receptor:G protein molar ratio 1:0” value is recorded as 0.12 ± 0.04 (11). In assay [4] (fraction of receptors in high-affinity state, two-site model, R:G 1:500 (Gi1)), the “FracHi - M2 mAChR nanodiscs - receptor:G protein molar ratio 1:500” value was 0.68 ± 0.06 (3). Also, in assay [4] (fraction of receptors in high-affinity state, two-site model, R:G 1:1000 (Gi1)), the “FracHi - M2 mAChR nanodiscs - receptor:G protein molar ratio 1:1000” value is 0.76 ± 0.06 (3). Moreover, the “FracHi - M2 mAChR nanodiscs - receptor:G protein molar ratio 1:2000” value in assay [4] (fraction of receptors in high-affinity state, two-site model, R:G 1:2000 (Gi1)) is 0.91 ± 0.05 (3). Also, the “(LY211) - Log αAgonist” value in assay [1] (Full interaction, − G protein heterotrimer, cooperativity between orthosteric agonist and LY211, ATCM) is recorded as 2.05 ± 0.21 (4). Moreover, the pEC50 in assay [2] (Gi1 activation (BRET), M2 mAChR FlpIn CHO cells, three-parameter logistic equation) is 9.18 ± 0.22 (7); in assay [5] it was 8.23 ± 0.16. Further, the “Log τ” value in assay [2] was 1.61 ± 0.25 (7). Besides, the Steady state is reported as 102 ± 0.95 (3) in assay [3] (setting [7]) and 114 ± 0.68 (4) in assay [3] (setting [9]). Moreover, the Initial rate is reported as 217 ± 6.48 (3) BRET units min^−1 in assay [3] (setting [8]) and 586 ± 26.8 (4) BRET units min^−1 in assay [3] (setting [9]).

Take `C[N+]1(C)[C@@H]2CC(OC(=O)[C@H](CO)c3ccccc3)C[C@H]1[C@@H]1O[C@@H]12` (stereo partly shown) [[^3H]-NMS, [^3H]-N-methylscopolamine]: the B max in assay [6] (+10 μM LY211) is given as 115 ± 13.2 (3); in assay [6] (+10 μM LY211 + Gi1), 20.33 ± 4.96 (3); in assay [6] ([3H]-NMS only, maximal binding at equilibrium, one-phase association model), 131 ± 4.71 (3). Also, in assay [6] ([3H]-NMS only, monoexponential decay), the k off was 0.150 ± 0.011 (4) min^−1.
